The test system of test [1] is Hela cells. Briefly: Apoptosis assay (Guava Nexin Reagent). The format is cell-based. Conditions: BDM 200 μM followed by Chk1 inhibitor; p<0.01 vs. control. On the procedure: (§1) Cell viability and apoptosis assays. Hela cells were seeded into 96 well plates at a density of 1500 cells per well. Cells were treated with BDM (3.125-200 μM) for 24 h. After this time cells were additionally treated either with UCN-01 (100 nM), Chk2 inhibitor (100 nM) or Gö6976 (200 nM) for an additional 24 h. MTS reagent (CellTiter 96® AQueous Proliferation Assay, Promega) was added to each well for 4 h before the absorbance values at 490 nm was read. Experiments were conducted in triplicate, 3 independent times. Data presented are the average absorbance values, relative to control±SD. For apoptosis determination, cells seeded and treated as stated above were stained with Guava Nexin Reagent® (Millipore). Analysis was conducted using the Easycyte module and Cytosoft Software® (Millipore). Experiments were conducted 3 independent times, collecting 2000 events each time. Data shown is the average±SD.

Test [2] concerns Hela cells. Briefly: Cell viability MTS assay, Hela. It is filed as cell-based. The procedure: as §1
The test system of test [3] is Hela cells. Briefly: Electron microscopy of mitotic chromosomes. It is filed as cell-based. On the procedure: Electron microscopy. Hela cells were seeded into 6 cm dishes, synchronized with thymidine (2 mM) and treated with BDM 50 μM, 200 μM or gemcitabine (100 μM) for 18 h. Cells treated with UCN-01 (100 μM) for an addition 9 h to obtain mitotic cells were fixed with glutaraldehyde solution (3%, pH 7.4). Samples were prepared for electron microscopy analysis.

Test [4] has as its system Hela cells stably expressing GFP:histone H2B. Briefly: Time-lapse video microscopy of mitosis. It is filed as cell-based. The procedure: Time-lapse video microscopy. Hela cells stably expressing GFP:histone H2B were seeded into 6 well plates and synchronized in S phase using thymidine (2 mM). […] Where appropriate, UCN-01 (100 nM) was added to wells before being supplemented with HEPES (25 mM), layered with mineral oil (Sigma) and placed into a housing chamber which maintained the temperature at 37° C. Using a Nikon TE2000 microscope (Nikon) controlled by MetaMorph software (Molecular Devices), brightfield and fluorescent images were captured every 5 minutes for up to 48 h. Individual movies were analyzed manually and a minimum of 100 cells per treatment scored for the indicated measurements. For montages, selected frames representing different cell morphologies are presented.

Test [5] concerns Hela cells. Briefly: Metaphase spreads. It is filed as cell-based. On the procedure:
Metaphase spreads. Mitotic cells were collected from untreated and bendamustine at 50 μM or 200 μM+UCN-01 (100 nM) treatments. For visualizing, cells were dropped onto a glass slides and stained with DAPI. Mitotic spreads were viewed and imaged using fluorescence microscopy. Images shown are representative of those observed.

Test [6] relates to TDG knock-out MEFs transduced with wild type human TDG cDNA. Briefly: Cell cycle FACS after gemcitabine, knock-out MEFs with wild type hTDG. Conditions: knockout MEFs reconstituted with wild type TDG. It is filed as cell-based, mouse. The procedure:
(§2) The biologic function of TDG includes a non-enzymatic role as transcriptional co-activator, mediated by protein-protein interactions, and an enzymatic role related to its DNA N-glycosylase activity. To determine whether sensitization to gemcitabine was due to inactivation of TDG enzymatic function, TDG knock-out MEFs transduced with wild type or glycosylase-dead human TDG cDNA were evaluated.

Test [7] concerns TDG knock-out mouse embryo fibroblast lines (MEFs). Briefly: Cell cycle FACS after gemcitabine, TDG knock-out MEFs. The format is cell-based. As to conditions: 50 nM gemcitabine, 48 hours. The procedure: (§3) DNA content analysis via flow cytometry. Following indicated drug treatments, cells were fixed with 70% ethanol. For analysis, cells were stained with propidium iodide, RNase A and sodium citrate. Cells were incubated at 37° C. for 30 minutes before being analyzed using a Becton Dickinson single laser three-fluorescence FACScan flow analyzer and Cell Quest software (Becton Dickinson). DNA content was acquired from 10,000 events and FlowJo software was used to process the data.
(§4) Isogenic, littermate-derived, thymine DNA glycosylase (TDG) wild type and knock-out mouse embryo fibroblast lines (MEFs) were treated with a sub-lethal dose of 50 nM gemcitabine for 48 hours. At the end of the treatment, cells were collected, stained with propidium iodide and analyzed by flow cytometry.

In test [8] the test system is BxPC3 pancreatic cancer cells. Briefly: Clonogenic assay, BxPC3 with or without TDG knockdown. The format is cell-based. As to conditions: TDG knockdown (C8) versus pLKO-infected BxPC3. The procedure: Clonogenic assays were conducted on pancreatic cancer (PaC) cell line BxPC3 infected with empty pLKO vector or with the C8 lentivirus that downregulates TDG. Even in the absence of gemcitabine, colony formation by the TDG knockdown cells was reduced nearly 60% (FIG. 13). In FIG. 10, the maximum number of colonies formed by pLKO-infected BxPC3 cells was set as 100%.

The test system of test [9] is TDG knock-out MEFs transduced with glycosylase-dead human TDG cDNA. Briefly: Cell cycle FACS after gemcitabine, knock-out MEFs with glycosylase-dead hTDG. The format is cell-based, mouse. As to conditions: versus knock-out cells transduced with wild type human TDG cDNA. On the procedure: as §2
In test [10] the test system is TDG wild type mouse embryo fibroblast lines (MEFs). Briefly: Cell cycle FACS after gemcitabine, wild type MEFs. It is filed as cell-based. Conditions: 50 nM gemcitabine, 48 hours. The procedure:
as §3, §4

Test [11] deals with SK28 cells. Briefly: SK28 cell viability (MTS assay). Conditions: SK28, concentration-dependent, quadruplicate. The format is cell-based. On the procedure:
(§5) Tests were conducted in quadruplicate.

Test [12] relates to BxPC3 cells. Briefly: xCelligence proliferation assay, BxPC3. It is filed as cell-based. As to conditions: increasing juglone + 45 μM BDM, 24 hours. The procedure: To independently verify the MTS and clonogenic assays described in the preceding Examples, an assay was conducted using a xCelligence real-time cell analyzer (ACEA Biosciences, Inc.), using a label-free, non-invasive method to monitor adherent cell behavior, including proliferation, spreading and compound-mediated cytotoxicity. The system is based on detecting impedance differences within an electrical circuit created in microelectrodes at the base of culture wells; these differences are converted into a cell index (CI), a value that is influenced by a variety of factors, such as cell number, cell size and cell adhesion. The effect of the TDG inhibitor juglone, in combination with bendamustine (BDM) and gemcitabine (GCB), was assessed on the growth of various cancer cells. BxPC3 cells were treated with 45 μM BDM, in combination with increasing concentrations of juglone, and proliferation was followed over 24 hours.

In test [13] the test system is MCF7 breast cancer cell lines. Briefly: xCelligence proliferation assay, MCF7. The format is cell-based. Conditions: juglone + BDM.
Test [14] concerns SK28 cells. Briefly: SK28 clonogenic assay. As to conditions: SK28, concentration-dependent, quadruplicate. The format is cell-based. On the procedure:
as §5

Another test concerns SK28 melanoma cells. Briefly: Killing by juglone combinations, SK28. The format is cell-based.
Test [15] has as its system HCT116 colon cancer cells. Briefly: Killing by juglone combinations, HCT116. The format is cell-based. On the procedure:
[The source words this procedure for another cell line and reports this cell line under the same test.] (§6) Two TDG inhibitors, juglone and closantel, were tested for their ability to kill two PaC cell lines, BxPC3 and Panc1 cells, in MTS assays. Cells were treated for 72 and 96 hours with 10 μM juglone and 20 μM closantel, in combination with increasing concentrations of BDM.

For test [16], the system named is BxPC3 cells. Briefly: MTS assay, TDG inhibitor combinations, BxPC3. The format is cell-based. Conditions: 10 μM juglone + increasing BDM, 72 and 96 hours. On the procedure: as §6
The subject of another test is MCF7 breast cancer cells. Briefly: Killing by juglone combinations, MCF7. It is filed as cell-based.
The mark [17] stands for this setting: 50 μM BDM 24 h, then UCN-01 100 nM.

“Also recorded” adds a separate entry of the source.

Take `CN[C@@H]1C[C@H]2O[C@@](C)([C@@H]1OC)n1c3ccccc3c3c4c(c5c6ccccc6n2c5c31)C(=O)N[C@@H]4O` [UCN-01]: the “percentage of apoptotic cells” value in the test with Hela cells [1] is recorded as “exhibited an increase in the percentage of apoptotic cells”. The “sensitization to killing by BDM (viability)” value with Hela cells [2] (200 μM BDM 24 h, then Chk1 inhibitor 24 h) is given as “viability was significantly reduced”. The “sensitization to killing by BDM” value with Hela cells [2] (BDM up to 100 μM 24 h, then UCN-01 100 nM 24 h) is given as “did not sensitize”. For the same compound, the “cell viability, UCN-01 alone” value in the test on Hela cells [2] (UCN-01 alone, any of the assays performed) is recorded as “no discernable effects on cell viability”. Also, the “chromosome ultra-structure (electron microscopy)” value with Hela cells [3] (BDM 50 μM + UCN-01) is “intact chromosomes were clearly visualized”; with Hela cells [3] (BDM 200 μM + UCN-01) it was “highly fragmented”. Further, in test [4] (setting [17]), the “effect on BDM-induced arrest” value is on record as “abrogated the arrest”. Moreover, the “time to start of mitotic entry after UCN-01 addition” value in test [4] (setting [17]) is 4 h. Moreover, in test [4] (50 μM BDM + UCN-01, controls 37.5±16.7 minutes), the “delay at metaphase (average)” value came to 89 ± 64.7 min. For the same compound, the “chromosome morphology in metaphase spreads” value in the test with Hela cells [5] (BDM 50 μM + UCN-01) was “no obvious gross structural defects”; with Hela cells [5] (BDM 200 μM + UCN-01), “extremely abnormal”.
For `Nc1ccn([C@@H]2O[C@H](CO)[C@@H](O)C2(F)F)c(=O)n1` [gemcitabine, 2′,2′-difluorodeoxycytidine], in test [6], the “response to gemcitabine (flow cytometry)” value is “responded the same as wild type MEFs”. Also, the “cells in S phase” value was found to be 52.3% in test [7] and 20.7% in test [10]. Besides, the “colony formation with increasing gemcitabine” value in [8] was “further reduced, and this reduction was greater than pLKO-infected cells expressing TDG”. Moreover, the “sensitivity to gemcitabine (flow cytometry)” value in test [9] is “increased sensitivity”.
Regarding `O=C1C=CC(=O)c2c(O)cccc21` [juglone, 5-hydroxynaphthoquinone], the cell viability entry was “reduction of SK28 cell viability” in the test with SK28 cells [11] and “reduce cell viability” in the test with SK28 cells [11] (listed as Juglone). Besides, the “proliferation (normalized cell index)” value is given as “suppressed proliferation more than juglone alone” in the test on BxPC3 cells [12] and “A similar result was observed” in test [13]. In addition, the “clonogenic capacity / colony-forming ability” value with SK28 cells [14] is “reduction of SK28 cell viability (MTS assay) and colony-forming ability; also recorded: reduction of clonogenic capacity”; with SK28 cells [14] (listed as Juglone) it was “reduce cell viability and clonogenic capacity”. The “killing in combination with bendamustine” value (with SK28 melanoma cells (juglone + bendamustine); in test [15] (juglone + bendamustine)) was “more effectively killed” in each case. Further, the “killing in combination with gemcitabine” value (in the test with SK28 melanoma cells (juglone + gemcitabine); in test [15] (juglone + gemcitabine)) was “more effectively killed” in each case. The figures for the “killing effect in combination with BDM” value in the test on BxPC3 cells [16] and with MCF7 breast cancer cells (juglone + BDM) were “synergistic killing effect” and “synergistic effect”, respectively. In addition, in the test with MCF7 breast cancer cells (juglone + gemcitabine), the “killing effect in combination with gemcitabine” value was “synergistic killing”.

These data come from patent US10220051B2, “Combination of DNA repair inhibition with bendamustine or gemcitabine in the treatment of cancer” (Institute for Cancer Research, priority 2012, dated 2019).
